Activity calls are given as the source filed them. Rule as the data show it, for most assays here: actives have a measured EC50 and inactives only a lower limit.
Assays:
[1] = NIH3T3 cell viability loss – ATP luminescence, mouse fibroblasts, counter-screen, dose response (AID 2010); assay type: functional, cell-based;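 also: cells exposed to compound for about 90 hours before reading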
[2] = Trypanosoma cruzi growth suppression in host cells – NIH3T3 host cells, beta-gal luminescence, confirmation (AID 2044); assay type: functional, cell-based;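 also: intracellular parasites grown in NIH/3T3 mouse fibroblasts as host cells; luminescent beta-galactosidase reporter signal from transgenic T. cruzi replicating inside host cells; inhibitors lower the luminescence signal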
Cytochrome P450 1A2 = target: T1, Cytochrome P450 1A2 (Homo sapiens, UniProt P05177);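 also: PubChem cytochrome P450 panel assay, CYP1A2 panel member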
T1 sequence (P05177 whole entry): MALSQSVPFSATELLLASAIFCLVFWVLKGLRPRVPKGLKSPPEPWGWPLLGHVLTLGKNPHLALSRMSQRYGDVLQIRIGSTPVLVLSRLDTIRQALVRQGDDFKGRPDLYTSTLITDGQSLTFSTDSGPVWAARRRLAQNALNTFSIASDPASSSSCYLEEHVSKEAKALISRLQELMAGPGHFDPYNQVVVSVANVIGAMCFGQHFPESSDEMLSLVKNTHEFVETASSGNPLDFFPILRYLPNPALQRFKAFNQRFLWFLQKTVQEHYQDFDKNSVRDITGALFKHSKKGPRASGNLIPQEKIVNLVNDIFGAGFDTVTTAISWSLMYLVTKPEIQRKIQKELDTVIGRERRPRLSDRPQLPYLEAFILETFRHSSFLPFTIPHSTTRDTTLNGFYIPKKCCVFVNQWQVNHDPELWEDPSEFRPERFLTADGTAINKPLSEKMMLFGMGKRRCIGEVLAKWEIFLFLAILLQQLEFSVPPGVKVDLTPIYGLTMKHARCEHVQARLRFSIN

[3] = test system: Streptococcus sp. 'group A'; experiment: Streptococcus pyogenes SK(-)GAS viability under kanamycin – luminescence, BacTiterGlo, confirmation, counter-screen for streptokinase expression inhibitor project, dose response (AID 1900); assay type: functional, organism-based
Streptococcus = experiment: GAS UMAA2166 growth inhibition – luminescence, BacTiterGlo, counter-screen for streptokinase expression inhibitor project, dose response (AID 1915); assay type: functional, organism-based;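 also: potency for reduction of bacterial viability or growth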

| Compound | EC50 [1] | EC50 [2] | also measured |
| --- | --- | --- | --- |
| C=C(C)COc1ccc(-c2nc(N)nc(C(F)(F)F)c2-c2ccc(OC)cc2)c(O)c1 | > 60 µM (not active) | 2 µM (active) | – |
| Cc1ccc(CNC(=O)CCC2CCCN(Cc3ccc4cccc(F)c4n3)C2)o1 (stereo not given) | > 60 µM (not active) | 0.791 µM (active) | – |
| CCCOc1ccc(C(=O)NNC(=S)NC(=O)c2cc(-c3ccccc3)nc3ccccc23)cc1 | – | – | AC50 (Cytochrome P450 1A2): 17.8 µM (inconclusive) |
| CC(C)=CCc1cc([C@@H]2CC(=O)c3ccc(O)c(CC=C(C)C)c3O2)ccc1O [GLABROL] | – | – | EC50 [3]: 6.4 µM (active); EC50 (Streptococcus): 5.43 µM (active) |
| O=C(C1=C[C@H](c2ccc(Br)cc2)C[C@H](OCCCCO)O1)N1CCN(Cc2ccccc2)CC1 | > 60 µM (not active) | 0.874 µM (active) | – |
| COc1c(N2CCNC(C)C2)c(F)cc2c(=O)c(C(=O)O)cn(C3CC3)c12 (stereo not given) [GATIFLOXACIN] | – | – | EC50 [3]: 0.66 µM (active); EC50 (Streptococcus): 1.09 µM (active) |
| CCOC(=O)c1ccc(-n2ccnc2)c(NC(=O)c2cccc(Br)c2)c1 | > 60 µM (not active) | 0.281 µM (active) | – |
| CC(C)c1ccccc1OCC(O)CN1CCN(S(=O)(=O)c2ccc([N+](=O)[O-])cc2)CC1 (stereo not given) | > 60 µM (not active) | 0.409 µM (active) | – |
| c1ccc2sc(C3CCNCC3)nc2c1 | > 60 µM (not active) | 2.58 µM (active) | – |
| Cc1nc(-c2ccccn2)nc(SCC(=O)c2ccccc2)c1Cl | – | – | EC50 [3]: 3.92 µM (active); EC50 (Streptococcus): 11.4 µM (active) |
| Clc1ccccc1-c1ncc2ccccn12 | > 60 µM (not active) | 2.45 µM (active) | – |
| O=[N+]([O-])c1ccc(S(=O)(=O)N2CCN(c3ccnc4cc(Cl)ccc34)CC2)cc1 | > 60 µM (not active) | 0.581 µM (active) | – |
| Cc1nn(C)cc1CN1CCCC(C(=O)c2ccc(-c3ccccc3)cc2)C1 (stereo not given) | > 60 µM (not active) | 0.123 µM (active) | – |
| Cc1ccc(NP(=O)(c2ccc(N(C)C)cc2NC(=O)c2cccs2)N2CCOCC2)cc1Cl (stereo not given) | > 30 µM (not active) | 1.9 µM (active) | – |
| O=S(=O)(c1ccccc1)N1CCC[C@@]2(CCN(c3cccc(-c4ccccc4)c3)C2)C1 | – | – | AC50 (Cytochrome P450 1A2): 15.8 µM (inconclusive) |
| Cc1onc(-c2ccc(Cl)cc2Cl)c1-c1csc(N/N=C/c2ccccc2Cl)n1 | 13.9 µM (active) | 2.08 µM (active) | – |
| O=C(NC1CCCCCC1)c1cccnc1S | > 60 µM (inconclusive) | 8.39 µM (active) | – |
| C[C@@H](C(=O)NCc1ccccn1)[C@@H]1C[C@@]1(C)[C@@H](NC(=O)OCc1ccccc1)c1ccccc1 | – | – | AC50 (Cytochrome P450 1A2): 20 µM (inconclusive) |
| COc1ccc(C)cc1NC(=O)CN1CCN(S(=O)(=O)c2ccc(C(C)C)cc2)CC1 | > 30 µM (not active) | 1.79 µM (active) | – |
| COc1ccc(-n2c(=O)c(-c3cn(C)c4ccccc34)nc3cnc(N4CCOCC4)nc32)cc1 | – | – | AC50 (Cytochrome P450 1A2): 31.6 µM (inconclusive) |
| Cc1noc(C)c1-c1cncnc1Nc1ccccc1 | – | – | AC50 (Cytochrome P450 1A2): 25.1 µM (inconclusive) |
| Clc1ccc(N2CCCCCC2)nn1 | – | – | AC50 (Cytochrome P450 1A2): 15.8 µM (inconclusive) |
| COc1ccc(Cl)cc1N=C(S)NCCC(c1ccccc1)c1ccccc1 | > 60 µM (not active) | 1.44 µM (active) | – |
| Cc1c(-c2ccccc2)oc2c(C(=O)OCCN3CCCCC3)cccc2c1=O [FLAVOXATE] | – | – | AC50 (Cytochrome P450 1A2): 6.31 µM (inconclusive) |
| O=C(COC(=O)c1c2c(nc3ccccc13)/C(=C\c1cccs1)CCC2)Nc1ccccc1Cl | > 60 µM (not active) | 1.73 µM (active) | – |
| CC(=O)/N=c1\sc2c3ccccc3ccc2n1C | > 30 µM (not active) | 0.643 µM (active) | – |
